Laboratory results as given in article PMC11621054, “Biological evaluation of semi-synthetic isoindolinone isomers produced by Stachybotrys chartarum” (Frontiers in Fungal Biology, 2024).
“Also recorded” adds a separate entry of the source.

Columns and labels:
[1] = Precipitation in cell culture medium; assay type: physicochemical; conditions: cell culture medium (DMEM), 0.5% DMSO
[2] = Hepatic phase II sulfation, horse cytosol; assay type: in vitro ADME; conditions: 50 µM, 4 h
Description: (§1) Liver microsomes and cytosol were obtained for two organisms, horse and human. Fresh horse liver was purchased locally cut to pieces of ca. 50 g each and frozen in liquid nitrogen. Until further usage, the liver was stored at -80 °C. The preparation of microsomes and cytosol was carried out according to Balk et al. ([Balk et al., 1984]), and the protein content was determined by Bradford assay with bovine serum albumin as a reference ([Bradford, 1976]). Human liver microsomes and cytosol (150 Donors Ultrapool™) were provided by Corning, Inc. (Corning, New York, NY, USA). Besides assay-specific positive controls, all assays included stability controls, moreover, matrix influences were considered. For oxidation, additional non-oxidation controls were included. Each experiment was performed in duplicate. All stated concentrations are final concentration values. The test compounds (acetoxystachybotrylactam acetate-tryptophan 2a, 2b and acetoxystachybotrylactam acetate-tryptamine 3a, 3b ) were extended by the most biologically active derivative previously characterized by our group (acetoxystachybotrylactam acetate-agmatine 4 ) ([Steinert et al., 2022]).
(§2) For phase II metabolism, potential sulfation and glucuronidation were investigated. For sulfation, the reaction mixture was pipetted as follows: first, ultrapure water was added and mixed with a 1 mM DTT solution (contains DTT, 100 mM phosphate buffer, 100 µM ascorbic acid, pH 7.4). Then, PAPS (100 µM) and the substance of interest (50 µM) were added, which was concluded by the addition of horse/human cytosol (10 mg protein/mL). For glucuronidation, first, ultrapure H2O, phosphate buffer (50 mM) and MgCl2 (5 mM) were added to the reaction vessel, followed by addition of the investigated substance (50 µM), UDPGA (5 µM), and horse/human microsomes (1 mg protein/mL), respectively. For both assays, the final volume was 100 µL which was subsequently incubated for 4 h at 37 °C in darkness. […] After centrifugation (4 °C, 10 min, 15,000 rpm), 150 µL of supernatant was diluted with 850 µL H2O, which was subsequently analyzed by HPLC-qToF-HRMS. […]

[3] = target: T1, human β-FXIIa (Homo sapiens, UniProt P00748); test: Serine protease inhibition assay, fluorogenic substrate, FXIIa; assay type: biochemical; conditions: endpoint RFU after 1 h, 25 °C; for inhibition of FXIIa: 200 µM
T1 construct: human β-FXIIa, HFXIIAB, > 95% purity; Molecular Innovations; purchased Molecular Innovations HFXIIAB
Description: (§3) The inhibitory activity of further semi-synthesized compounds toward the coagulation factor XIIa, thrombin, FXIa, FXa, and trypsin was measured by quantifying the hydrolysis rate of the fluorogenic substrates as reported previously ([Korff et al., 2020]; [Platte et al., 2021]; [Imberg et al., 2022]). Briefly, the activity was tested in buffer (10 mM Tris-Cl, 150 mM NaCl, 10 mM MgCl2·6 H2O, 1 mM CaCl2·2 H2O, 0.1% w/v BSA, 0.01% v/v Triton-X100, pH 7.4) utilizing clear flat-bottom, black polystyrene 96-well plates. The enzymes (human β-FXIIa, HFXIIAB, > 95% purity; Molecular Innovations, 2.5 nM – final concentration; human α-thrombin (active) protein, ABIN2127880, > 95% purity; antibodies-online, 0.25 nM – final concentration; human Factor Xa, HFXA, > 95% purity; Molecular Innovations, 2.5 nM – final concentration; human factor XIa, HFXIA, >95% purity; Molecular Innovations, 0.5 nM – final concentration porcine trypsin; Merck, 3.5 nM – final concentration) and the fluorogenic substrates for FXIIa: Boc-Gln-Gly-Arg-AMC (Pepta Nova, 25 µM – final concentration, Km = 167 µM); for thrombin: Boc Val Pro Arg AMC (Pepta Nova, 25 µM – final concentration, Km = 18 µM); for FXa: Boc-Ile-Glu-Gly-Arg-AMC (Pepta Nova, 25 µM – final concentration); for FXIa: Boc-Glu-(OBzl)-Ala-Arg-AMC (Pepta Nova, 25 µM – final concentration); for trypsin: Z-Gly-Gly-Arg-AMC (Sigma-Aldrich, 25 µM – final concentration) were used. The fluorogenic substrate solution was added into the wells followed by the addition of test-compounds solution, and the reaction was triggered by addition of the enzyme solution (final testing volume – 150 µL). In case of blank (substrate + buffer) and control (substrate + enzyme) wells, DMSO was added instead of the test-compounds’ solution. Fluorescence intensity was measured with Microplate Reader Mithras LB 940 (Berthold Technologies, excitation at 355 nm, emission at 460 nm) for a period of 1 h with a read every minute. The reactions were performed at 25 °C. To derive % of enzyme inhibition, endpoint RFU (single fluorescence reading after 1 h) was used. As a positive controls for thrombin, FXa, FXIIa, FXIa, and trypsin were used dabigatran (500 nM), rivaroxaban (500 nM), compound “39b” (500 nM) ([Platte et al., 2021]), Inhibitor 5t (8 µM) ([Imberg et al., 2022]), Inhibitor E (2 µM) ([Erbacher et al., 2024]), respectively. Semi-synthesized compounds were screened at 200 µM.

[4] = Hepatic phase II sulfation, human cytosol; assay type: in vitro ADME; conditions: 50 µM, 4 h
Description: as §1, §2

[5] = target: T2, porcine trypsin (Sus scrofa, UniProt P00761); test: Serine protease inhibition assay, fluorogenic substrate, trypsin; assay type: biochemical; conditions: 200 µM, endpoint RFU after 1 h, 25 °C
T2 construct: porcine trypsin; Merck, 3.5 nM – final concentration; purchased Merck
Description: (§4) The inhibitory activity of further semi-synthesized compounds toward the coagulation factor XIIa, thrombin, FXIa, FXa, and trypsin was measured by quantifying the hydrolysis rate of the fluorogenic substrates as reported previously ([Korff et al., 2020]; [Platte et al., 2021]; [Imberg et al., 2022]). Briefly, the activity was tested in buffer (10 mM Tris-Cl, 150 mM NaCl, 10 mM MgCl2·6 H2O, 1 mM CaCl2·2 H2O, 0.1% w/v BSA, 0.01% v/v Triton-X100, pH 7.4) utilizing clear flat-bottom, black polystyrene 96-well plates. […] Fluorescence intensity was measured with Microplate Reader Mithras LB 940 (Berthold Technologies, excitation at 355 nm, emission at 460 nm) for a period of 1 h with a read every minute. […] To derive % of enzyme inhibition, endpoint RFU (single fluorescence reading after 1 h) was used. […]

[6] = test system: lung adenocarcinoma cells (A549, CCL-185); conditions: A549, 24 h incubation, resazurin
[7] = target: T3, human Factor Xa (Homo sapiens, UniProt P00742); test: Serine protease inhibition assay, fluorogenic substrate, FXa; assay type: biochemical; conditions: 200 µM, endpoint RFU after 1 h, 25 °C
T3 construct: human Factor Xa, HFXA, > 95% purity; Molecular Innovations; purchased Molecular Innovations HFXA
Description: as §4

[8] = target: T4, human factor XIa (Homo sapiens, UniProt P03951); test: Serine protease inhibition assay, fluorogenic substrate, FXIa; assay type: biochemical; conditions: endpoint RFU after 1 h, 25 °C
T4 construct: human factor XIa, HFXIA, >95% purity; Molecular Innovations; purchased Molecular Innovations HFXIA
Description: as §3

[9] = test system: Human liver carcinoma cells (HepG2, HB-8065); conditions: HepG2, 24 h incubation, resazurin
[10] = Hepatic phase II glucuronidation, horse microsomes; assay type: in vitro ADME; conditions: 50 µM, 4 h; for glucuronidation: conversion and formation of glucuronides, in words: horse microsomes
Description: as §1, §2

[11] = Hepatic phase II glucuronidation, human microsomes; assay type: in vitro ADME; conditions: 50 µM, 4 h; for glucuronidation: conversion and formation of glucuronides, in words: human microsomes
Description: as §1
For phase II metabolism, potential sulfation and glucuronidation were investigated. For sulfation, the reaction mixture was pipetted as follows: first, ultrapure water was added and mixed with a 1 mM DTT solution (contains DTT, 100 mM phosphate buffer, 100 µM ascorbic acid, pH 7.4). Then, PAPS (100 µM) and the substance of interest (50 µM) were added, which was concluded by the addition of horse/human cytosol (10 mg protein/mL). For glucuronidation, first, ultrapure H2O, phosphate buffer (50 mM) and MgCl2 (5 mM) were added to the reaction vessel, followed by addition of the investigated substance (50 µM), UDPGA (5 µM), and horse/human microsomes (1 mg protein/mL), respectively. For both assays, the final volume was 100 µL which was subsequently incubated for 4 h at 37 °C in darkness. Quenching and protein precipitation was achieved by adding 200 µL of cold MeCN (-20 °C). After centrifugation (4 °C, 10 min, 15,000 rpm), 150 µL of supernatant was diluted with 850 µL H2O, which was subsequently analyzed by HPLC-qToF-HRMS. For both experiments, 50 µM 7-hydroxycumarin served as positive control.
Chromatographic separation and mass spectrometric detection were identical to the parameters already described for the fragmentation experiments for phase I and phase II glucuronidation metabolism. For sulfation, the HPLC-qToF-HRMS was operated in negative ionization mode at -4.5 kV and otherwise identical source parameters as previously described. […]

[12] = test system: Human liver carcinoma cells (HepG2, HB-8065); set-up: method as in Steinert et al., 2022; conditions: 50 µM, 24 h; data of Figure 8 for compound 1 from previous investigation; ref Steinert et al., 2022; cited from earlier work
[13] = Hepatic phase I metabolism (oxidation), horse microsomes; assay type: in vitro ADME; conditions: 10 µM, 90 min
Description: as §1
(§5) The phase I metabolism was investigated utilizing a NADPH- regenerating system. […] After centrifugation (4 °C, 10 min, 15,000 rpm), 150 µL of supernatant was diluted with 850 µL H2O, which was subsequently analyzed by HPLC-qToF-HRMS. […]

[14] = test system: HepG2; test: Micronucleus assay (genotoxicity, OECD 487); assay type: cell-based, human; conditions: 1 at 25 µM, 3a at 5 and 25 µM
Description: The genotoxic effects of the AcAc ( 1 ) and its semi-synthetic products ( 2a , 2b; 3a , 3b ) were evaluated with the micronucleus assay, performed based on OECD Test guideline 487. HepG2 were cultivated in accordance with the descriptions of Kalinina et al. ([Kalinina et al., 2018]). The cells were seeded with 300,000 cells/slide on Polysine® slides (Epredia™ Polysine™ Microscopic Adhesion Slides, FisherScientific) in quadriPERM® culture dishes (Sarstedt, Nümbrecht, Germany) and cultivated for 24 h. Then, they were incubated with the test compounds (0.5-25 µM) in serum free DMEM for 5 h. As positive control 0.6 µM mitomycin C (MMC) was used. All tested compounds were dissolved in DMSO. Cells were washed with sterile phosphate-buffered saline (PBS) and incubated with 4 µg/mL cytokinesis inhibitor cytochalasin B (Santa Cruz Biotechnology, USA) in DMEM for 19 h. Slides were washed with PBS and cold MeOH. Afterwards, cells were fixated with MeOH at -20 °C for 1 h. […] Subsequently, cells were evaluated using a fluorescence microscope (Zeiss Axio Imager 2, Oberkochen, Germany) with filters of 365/445 nm and 546/575 nm. The micronucleus rate was evaluated by counting 1,000 binucleate cells and binucleate cells with micronuclei on each slide and calculating the proportion of binucleate cells containing one or more micronuclei. […]

[15] = Hepatic phase I metabolism (oxidation), human microsomes; assay type: in vitro ADME; conditions: 10 µM, 90 min
Description: as §1, §5

T4 sequence (P03951 388-625 limits assumed): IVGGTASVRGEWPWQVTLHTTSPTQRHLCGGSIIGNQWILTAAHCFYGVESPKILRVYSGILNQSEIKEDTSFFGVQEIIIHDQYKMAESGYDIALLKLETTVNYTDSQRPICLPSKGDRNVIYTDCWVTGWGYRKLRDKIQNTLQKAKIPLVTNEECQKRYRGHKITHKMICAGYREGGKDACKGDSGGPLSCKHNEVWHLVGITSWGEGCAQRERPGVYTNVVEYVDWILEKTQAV
T4 sequence (P03951 19-387 partner limits assumed): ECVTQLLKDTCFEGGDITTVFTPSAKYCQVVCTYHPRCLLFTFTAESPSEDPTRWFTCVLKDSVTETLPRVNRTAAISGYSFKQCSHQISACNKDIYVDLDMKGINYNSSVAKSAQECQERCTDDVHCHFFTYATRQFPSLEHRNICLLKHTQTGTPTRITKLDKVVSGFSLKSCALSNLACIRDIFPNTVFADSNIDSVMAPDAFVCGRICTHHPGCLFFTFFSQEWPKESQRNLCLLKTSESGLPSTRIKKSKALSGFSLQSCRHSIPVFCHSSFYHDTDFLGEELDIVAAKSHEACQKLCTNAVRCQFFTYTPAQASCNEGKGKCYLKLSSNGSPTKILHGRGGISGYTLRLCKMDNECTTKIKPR
T1 sequence (P00748 373-615 limits assumed, other chains not shown): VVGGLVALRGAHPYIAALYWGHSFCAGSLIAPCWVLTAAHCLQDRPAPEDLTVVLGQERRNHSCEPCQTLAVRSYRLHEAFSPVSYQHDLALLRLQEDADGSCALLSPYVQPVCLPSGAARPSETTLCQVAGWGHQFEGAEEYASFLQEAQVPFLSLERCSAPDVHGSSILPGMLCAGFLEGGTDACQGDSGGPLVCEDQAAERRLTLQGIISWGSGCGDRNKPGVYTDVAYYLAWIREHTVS
T2 sequence (P00761 9-231): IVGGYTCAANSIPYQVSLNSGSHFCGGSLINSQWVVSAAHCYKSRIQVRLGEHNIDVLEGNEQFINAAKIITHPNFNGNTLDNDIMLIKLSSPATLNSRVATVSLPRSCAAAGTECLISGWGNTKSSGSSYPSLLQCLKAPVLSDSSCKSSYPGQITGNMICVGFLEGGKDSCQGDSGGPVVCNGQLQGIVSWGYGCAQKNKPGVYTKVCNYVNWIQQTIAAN
T3 sequence (P00742 235-488 limits assumed): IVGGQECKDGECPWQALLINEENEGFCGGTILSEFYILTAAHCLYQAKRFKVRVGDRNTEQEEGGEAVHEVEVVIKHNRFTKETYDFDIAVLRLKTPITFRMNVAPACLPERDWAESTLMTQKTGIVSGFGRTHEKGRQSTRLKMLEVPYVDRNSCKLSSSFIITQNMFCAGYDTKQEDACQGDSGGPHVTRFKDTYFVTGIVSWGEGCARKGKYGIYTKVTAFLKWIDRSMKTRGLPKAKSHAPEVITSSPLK
T3 sequence (P00742 41-179 partner limits assumed): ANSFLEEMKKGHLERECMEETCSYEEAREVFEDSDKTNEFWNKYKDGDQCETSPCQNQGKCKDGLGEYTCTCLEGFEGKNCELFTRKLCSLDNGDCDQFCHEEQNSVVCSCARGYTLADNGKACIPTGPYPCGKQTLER

Compound	concentration at which precipitation in cell culture medium starts [1] [µM]	metabolism under sulfation conditions, in words [2]	inhibition of FXIIa [3]	metabolism under sulfation conditions, in words [4]	inhibition of trypsin [5]	cytotoxicity (cell viability, T/C), in words [6]	inhibition of FXa [7]	inhibition at 200 µM [8] [%]	cytotoxicity (cell viability, T/C), in words [9]	inhibition at 200 µM [3] [%]	glucuronidation: conversion and formation of glucuronides, in words [10]	glucuronidation: conversion and formation of glucuronides, in words [11]	HepG2 cell viability [12]	phase I conversion, in words [13]	cell damage seen in the micronucleus assay (slides excluded from evaluation) [14]	phase I conversion, in words [15]	remaining parental compound, glucuronidation (phase II) ([10]; horse, 37 °C, normalized to stability control, n.d. = not detected)	remaining parental compound, glucuronidation (phase II) ([11]; human, 37 °C, normalized to stability control, n.d. = not detected)
CC(=O)OC1CC2(C)C(CCC(C)C23Cc2c(O)cc4c(c2O3)C(=O)N(CCc2c[nH]c3ccccc23)C4)C(C)(C)C1OC(C)=O (centres unmarked) [Compound 3b, Acetoxystachybotrylactam acetate-tryptamine]	≥ 1	did undergo metabolism	no inhibition	did undergo metabolism	no inhibition	no impact on cell viability was observed	no inhibition	17										
CC(=O)OC1CC2(C)C(CCC(C)C23Cc2c(O)cc4c(c2O3)C(=O)N(C(Cc2c[nH]c3ccccc23)C(=O)O)C4)C(C)(C)C1OC(C)=O (centres unmarked) [Compound 2b, Acetoxystachybotrylactam acetate-tryptophan]								66	less cytotoxic	34	more readily converted; also recorded: more available for glucuronidation than 2a	more readily converted; also recorded: more available for glucuronidation than 2a						
CC(=O)O[C@@H]1[C@H](OC(C)=O)C[C@@]2(C)C(CC[C@@H](C)[C@]23Cc2c(O)cc(C=O)c(C=O)c2O3)C1(C)C (some centres unmarked) [Compound 1, acetoxystachybotrydial acetate]		did undergo metabolism		did undergo metabolism							did not at all	did not at all	below 50%	metabolized fastest	left the cells visibly damaged	metabolized fastest	no 1 remaining in solution	no 1 remaining in solution
CC(=O)OC1CC2(C)C(CCC(C)C23Cc2c(O)cc4c(c2O3)CN(C(Cc2c[nH]c3ccccc23)C(=O)O)C4=O)C(C)(C)C1OC(C)=O (centres unmarked) [Compound 2a, Acetoxystachybotrylactam acetate-tryptophan]								51	more toxic	63								
CC(=O)OC1CC2(C)C(CCC(C)C23Cc2c(O)cc4c(c2O3)CN(CCc2c[nH]c3ccccc23)C4=O)C(C)(C)C1OC(C)=O (centres unmarked) [Compound 3a, Acetoxystachybotrylactam acetate-tryptamine]	≥ 10		no inhibition		no inhibition		no inhibition	9							impaired cell viability even more			
